# Like-named read-outs stand apart in the source and are kept apart here.
# What was measured:
# [1] = molecular target: T1, recombinant human CB1 receptor (Homo sapiens, UniProt P21554); assay: Cannabinoid Receptor-1 (CB1) Binding Assay ([3H]CP-55940 displacement)
# T1 construct: expressed in transfected cells
# Method: Binding affinity determination is based on recombinant human CB1 receptor expressed in Chinese Hamster Ovary (CHO) cells (Felder et al, Mol. Pharmacol. 48: 443-450, 1995). Total assay volume is 250 μl (240 μl CB1 receptor membrane solution plus 5 μl test compound solution plus 5 μl [3H]CP-55940 solution). Final concentration of [3H]CP-55940 is 0.6 nM. Binding buffer contains 50 mM Tris-HCl, pH 7.4, 2.5 mM EDTA, 5 mM MgCl2, 0.5 mg/mL fatty acid free bovine serum albumin and protease inhibitors (Cat#P8340, from Sigma). To initiate the binding reaction, 5 μl of radioligand solution is added, the mixture is incubated with gentle shaking on a shaker for 1.5 h at 30° C. The binding is terminated by using 96-well harvester and filtering through GF/C filter presoaked in 0.05% polyethylenimine. The bound radiolabel is quantitated using scintillation counter. Apparent binding affinities for various compounds are calculated from IC50 values (DeBlasi et al., Trends Pharmacol Sci 10: 227-229, 1989).
# [2] = molecular target: T1, recombinant human CB1 receptor; assay: Cannabinoid Receptor-1 (CB1) Functional Activity Assay (intracellular cAMP in CB1-CHO cells); assay type: cell-based; conditions: for functional mode at CB1 receptor: CB1 functional activity assay, cAMP
# Method: The functional activation of CB1 receptor is based on recombinant human CB1 receptor expressed in CHO cells (Felder et al, Mol. Pharmacol. 48: 443-450, 1995). To determine the agonist activity or inverse agonist activity of any test compound, 50 ul of CB1-CHO cell suspension are mixed with test compound and 70 ul assay buffer containing 0.34 mM 3-isobutyl-1-methylxanthine and 5.1 uM of forskolin in 96-well plates. The assay buffer is comprised of Earle's Balanced Salt Solution supplemented with 5 mM MgCl2 1 mM glutamine, 10 mM HEPES, and 1 mg/mL bovine serum albumin. The mixture is incubated at room temperature for 30 minutes, and terminated by adding 30 ul/well of 0.5M HCl. The total intracellular cAMP level is quantitated using the New England Nuclear Flashplate and cAMP radioimmunoassay kit.
# To determine the antagonist activity of test compound, the reaction mixture also contains 0.5 nM of the agonist CP55940 (or 50 nM of methanandamide), and the reversal of the CP55940 (or methanandamide) effect is quantitated with increasing concentration of the test compound. Intracellular cAMP is determined as described above. An IC50 value for the test compound is calculated from the titration curve.
# [3] = system: human GABA α1β3β2 receptors; assay: GABAa, 3H-muscimol binding assay; conditions: activity at 10 μM as percentage of activity of control compound P18 at 10 μM (increase of 3H-muscimol binding)
# Method: Membranes from recombinant Ltk cells expressing human GABA α1β3β2 receptors were suspended in an ice-cold solution of 100 mM KCl, 10 mM KH2PO4, adjusted to pH=7.4 with 1 M KOH. Tritiated muscimol (PerkinElmer, Wellesley, Mass.) at a concentration of 2 nM, and serial five-fold dilutions of test compounds at 10 μM, 2.0 μM, 400 nM, 80 nM, 16 nM, 3.2 nM, 0.64 nM and 0.13 nM were mixed in 96-well plates containing 200 μL of membrane suspension. Cold muscimol and compound P18 were used as negative and positive controls respectively. The assay mixture was incubated at 4° C. for 2 hours, then harvested on GF/C filter plates and washed with ice-cold 50 mM Tris-Ci buffer. The filter plates were dried and counted in a Wallac MicroBeta® Trilux detector (Model 1450-030; PerkinElmer, Wellesley, Mass.), and the data were downloaded and analyzed using Prism 3.0. The activity of compound P18 at 10 μM was used as reference for the test compounds, and it was expressed as increasing ^3H-muscimol binding by 100%, whereas cold muscimol at 2 μM antagonized ^3H-muscimol binding by 100%. The tested compound's activity at 10 μM was expressed as a percentage of compound P18's activity at 10 μM.
# As a reference, the parent compound (the compound not substituted with a R^4 heteroaryl, such as pyrazole or 1,2,4-oxadiazole, as indicated below) is also shown with its Gamma Amino Butyric Acid (GABA) Receptor activity. […] As a result, the compounds of the present invention in which R^4 is a heteroaryl, such as pyrazole or 1,2,4-oxadiazole, have the unexpected benefits of minimizing off target activity at the GABA receptor.
# Note: % GABA is defined as the GABA activity of the indicated compound expressed as a percentage of the activity of control compound P18. NA=data not available.
# [4] = recombinant human CB1 receptor expressed in CHO cells, 0.6 nM [3H]CP-55940, read-out: CB1 binding IC50
# [5] = CB1-CHO cells, forskolin-stimulated cAMP, read-out: EC50 in the CB1 functional activity assay
# T1 sequence (P21554 whole entry): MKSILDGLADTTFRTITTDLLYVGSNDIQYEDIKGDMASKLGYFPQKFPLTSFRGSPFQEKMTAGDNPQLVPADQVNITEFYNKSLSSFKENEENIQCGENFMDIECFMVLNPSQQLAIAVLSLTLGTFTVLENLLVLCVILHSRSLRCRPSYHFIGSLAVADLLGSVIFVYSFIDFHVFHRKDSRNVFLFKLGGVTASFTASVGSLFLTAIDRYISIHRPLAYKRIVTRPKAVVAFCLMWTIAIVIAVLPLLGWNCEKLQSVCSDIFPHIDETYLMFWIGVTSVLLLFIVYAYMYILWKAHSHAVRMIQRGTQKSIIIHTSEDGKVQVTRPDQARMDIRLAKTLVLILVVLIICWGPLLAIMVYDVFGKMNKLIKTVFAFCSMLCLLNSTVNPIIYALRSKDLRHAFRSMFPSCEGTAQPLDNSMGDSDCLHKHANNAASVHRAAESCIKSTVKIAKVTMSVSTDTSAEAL
SMILES,"IC50 [1, 4] [nM]","EC50 [2, 5] [nM]",functional mode at CB1 receptor [2],% GABA Example [3] [%],IC50 [1] [nM],EC50 [2] [nM]
"Cc1n[nH]cc1-c1ccc(-c2nc3oc(C(=O)C(C)(C)C)c(CO)c3cc2-c2ccc(Cl)cc2)c(Cl)c1 [Example 37, 1-[6-[2-Chloro-4-(3-methyl-1H-pyrazol-4-yl)phenyl]-5-(4-chlorophenyl)-3-(hydroxymethyl)furo[2,3-b]pyridin-2-yl]-2,2-dimethylpropan-1-one]",1,< 20,functional inverse agonists,14,,
"CC(=O)c1c(C(=O)C(C)C)oc2nc(-c3ccc(-c4c[nH]nc4C)cc3Cl)c(-c3ccc(Cl)cc3)cc12 [Example 38, 1-[3-Acetyl-6-[2-chloro-4-(3-methyl-1H-pyrazol-4-yl)phenyl]-5-(4-chlorophenyl)furo[2,3-b]pyridin-2-yl]-2-methylpropan-1-one]",3,< 20,functional inverse agonists,39,,
"CC(=O)c1c(C(=O)C(C)(C)C)oc2nc(-c3ccc(-c4c[nH]nc4C)cc3Cl)c(-c3ccc(Cl)cc3)cc12 [Example 40, 1-[3-Acetyl-6-[2-chloro-4-(3-methyl-1H-pyrazol-4-yl)phenyl]-5-(4-chlorophenyl)furo[2,3-b]pyridin-2-yl]-2,2-dimethylpropan-1-one]",,,functional inverse agonists,12,1,< 20
"CC(=O)Nc1c(C(=O)C(C)(C)O)oc2nc(-c3ccc(-c4c[nH]nc4C)cc3Cl)c(-c3ccc(Cl)cc3)cc12 [Example 41, N-[6-[2-Chloro-4-(3-methyl-1H-pyrazol-4-yl)phenyl]-5-(4-chlorophenyl)-2-(2-hydroxy-2-methylpropanoyl)furo[2,3-b]pyridin-3-yl]acetamide]",5,< 20,functional inverse agonists,35,,

# Further compounds by falling IC50 [1, 4], results first:
"IC50 [1, 4] [nM]","EC50 [2, 5] [nM]",functional mode at CB1 receptor [2],% GABA Example [3] [%],SMILES,IC50 [1] [nM],EC50 [2] [nM]
1,< 20,functional inverse agonists,9,"Cc1n[nH]cc1-c1ccc(-c2nc3oc(C(=O)C(C)(C)C)c(C(N)=O)c3cc2-c2ccc(Cl)cc2)c(Cl)c1 [Example 3, 6-[2-chloro-4-(3-methyl-1H-pyrazol-4-yl)phenyl]-5-(4-chlorophenyl)-2-(2,2-dimethylpropanoyl)furo[2,3-b]pyridine-3-carboxamide]",,
1,< 20,functional inverse agonists,17,"CC(C)(C)C(=O)c1oc2nc(-c3ccc(-c4cn[nH]c4)cc3Cl)c(-c3ccc(Cl)cc3)cc2c1N [Example 7, 1-{3-Amino-5-(4-chlorophenyl)-6-[2-chloro-4-(1H-pyrazol-4-yl)phenyl]furo[2,3-b]pyridin-2-yl}-2,2-dimethylpropan-1-one]",,
1,< 20,functional inverse agonists,7,"Cc1c(S(=O)(=O)C(C)(C)C)oc2nc(-c3ccc(-c4cn[nH]c4)cc3Cl)c(-c3ccc(Cl)cc3)cc12 [Example 11, 2-(Tert-butylsulfonyl)-5-(4-chlorophenyl)-6-[2-chloro-4-(1H-pyrazol-4-yl)phenyl]-3-methylfuro[2,3-b]pyridine]",,
0.4,< 20,functional inverse agonists,41,"CC(C)(C)C(=O)c1oc2nc(-c3ccc(-c4ncon4)cc3Cl)c(-c3ccc(Cl)cc3)cc2c1NC(=O)CO [Example 43, N-[6-[2-Chloro-4-(1,2,4-oxadiazol-3-yl)phenyl]-5-(4-chlorophenyl)-2-(2,2-dimethylpropanoyl)furo[2,3-b]pyridin-3-yl]-2-hydroxyacetamide]",,

# — patent US20080269279A1, “Substituted furo[2,3-B] pyridine derivatives as cannabinoid-1 receptor modulators” (priority 2007, published 2008)
